Assay results from patent US11248016B2, “Glycolipids and pharmaceutical compositions thereof for use in therapy” (THE UNIVERSITY OF NOTTINGHAM, priority 2014, dated 2022).

Experiments:
breast cancer cells MCF7 = experiment: Cell proliferation, MCF7; type: cell-based; details: 96 hours, Formula II only
Procedure: Growth of MCF7 cell lines were slowed by the treatment with a compound of Formula II. Experiment represents 6 biological repetitions, Error=S.E.M.
(§1) Prior to treatment cells were cultured to an appropriate confluency in 96 well tissue culture plates (Fisher). Cells remained either supplemented with fresh media or treated with fresh media containing active or an equivalent volume of DMSO (vehicle control). Where used, Cisplatin™ was diluted to a stock concentration in Dimethylformamide (DMF), then handled as per the manufacturer's instructions. To determine relative cell viability, reagents WST-1 (Roche) or MTT (Sigma) were used as per the manufacturer's instructions and absorbance at 450 nm measured using a Victor plate reader (Perkin Elmer).

[1] = test system: amyloid precursor protein APP 5′UTR luciferase reporter; experiment: 5′UTR firefly luciferase reporter assay, APP; type: cell-based, human
Procedure: SH-SY5Y cells were simultaneously co-transfected with APP-5′UTR firefly luciferase construct and a Renilla control vector. Luciferase levels were assayed using a Glomax Luminometer and Stop-n-Glo luciferase reagents (standard procedure throughout). The data presented represents 8 biological repetitions and use as the active a semi refined compound of Formula II. Levels of compound were estimated based on amounts of purified compound obtained from fresh tomato tissue.
The 5′UTRs of genes which negatively associate with the progression of Alzheimer's disease—amyloid precursor protein (APP) and beta secretases (BACE) are all inhibited by treatment with a compound of Formula II, whereas the equivalent reporter levels of housekeeping genes actin and thioredoxin (TXN) are not inhibited. […] Neuroblastoma cells were transfected 24 hours prior to treatment with a compound of Formula II. After treatment, cells were prepared as described in the materials and methods. Each experiment represents between 6 and 8 biological repetitions. […]
Cells were transfected using FuGene 6 (Roche) following the manufacturer's instructions. The activities of firefly and renilla luciferase in lysates prepared from transfected cells were measured using a commercially available Luciferase reporter assay system (Promega) and light emission was measured over a 10 sec interval using a TECAN luminometer. […]

[2] = test system: Cap-dependent (eIF4A dependant) translation; experiment: CrPV assay, cap-dependent translation (firefly luciferase); type: cell-based; details: 20 μM, 3 hours treatment, FIG. 12
Description: FIG. 12—CrPV assay—Natural molecule targets eIF4A.
By using a well characterised luciferase based reporter assay it was further determined that this class of molecule functions as a protein synthesis inhibitor via targeting the helicase eIF4A.

[3] = test system: SKOV3 ovarian cancer cells; experiment: Cell proliferation, SKOV3; type: cell-based; details: 96 hours
Procedure: Growth of SKOV3 cell lines were slowed by the treatment with a compound of Formula II at higher doses. Experiment represents 6 biological repetitions, Error=S.E.M.
Cisplatin™ resistant SKOV-3 ovarian cancer cells were sensitised to treatment with a compound of Formula II in combination with 2.5 μM Cisplatin™ (p=0.003) (right hand bar in the figure), no effect is observed from treatment with equivalent levels of a compound of Formula II alone (left hand bar in the figure) or Cisplatin™ alone.
as §1

[4] = test system: Neuroblastoma cells (SH-SY5Y); experiment: Polysome profiling (sucrose density); type: cell-based, human
Procedure: Established techniques such as polysome profiling were used to show a reduction in the number of polyribosomes in neuroblastoma cells after treatment with a compound of Formula II. Polysome peaks from left to right show increasing number of ribosomes associated with mRNA. This peaks at 3 ribosomes after treatment with a compound of Formula II showing rapid and reproducible perturbation of translation. Cells were treated for 20 minutes with a compound of Formula II then harvested and prepared as described in materials and methods. The supernatants were loaded onto 10-50% sucrose gradients and spun for 2 hrs at 38,000 RPM. Gradients were visualised using a UV detector.
The number of ribosomes is indicative of the translation of an mRNA and synthesis of the protein encoded by the mRNA, and treatment with the compound of Formula II decreases the number of ribosomes per message thereby reducing global protein synthesis.
Polysome profiles were obtained using sucrose density centrifugation. Briefly one 15 cm plate of cultured Neuroblastoma cells (SH-SY5Y) were grown per treatment to a confluency of 70%. Cells were then treated with either active or equivalent DMSO vehicle control for 20 min. […] Gradients were fractionated and polysome profiles determined through a continuous monitoring at absorbance 260 nm (described previously Johannes et al. 1999).

[5] = test system: breast cancer cells MDA-MB-231; experiment: Cell proliferation, MDA-MB-231; type: cell-based; details: 96 hours, Formula II only
Procedure: Growth of MDA-MB-231 cell lines were slowed by the treatment with a compound of Formula II. Experiment represents 6 biological repetitions, Error=S.E.M.
as §1

In the case of CC/C=C\C/C=C\C/C=C\CCCCCCCC(=O)OC[C@H](COC1OC(CO)C(O)C(O)C1O)OC(=O)CCCCCCC/C=C\C/C=C\C/C=C\CC (stereo partly drawn) [Formula II, 1,2-dioctadecatienyl-3-O-β-D-galactosyl-sn-glycerol], the “growth of MCF7 cells” value (breast cancer cells MCF7) is reported as “slowed”, the “firefly luciferase reporter activity, APP 5′UTR” value ([1]; Neuroblastoma cells transfected 24 hours prior, FIG. 3d) is reported as “inhibited” and the “APP 5′UTR luciferase reporter relative to Renilla luciferase reporter” value ([1]; SH-SY5Y cells, semi refined compound, FIG. 3a) is reported as “selective inhibition”. The “cap dependant translation (firefly luciferase signal)” value [2] was “selectively reduces the translation of the firefly luciferase gene”, the “cap dependant translation (firefly luciferase signal)” value ([2]; listed as Synthetic version of the natural molecule) was “inhibited” and the “growth of SKOV3 cells” value ([3]; Formula II only, at higher doses) was “slowed”. The “effect on SKOV-3 cells, compound alone” value ([3]; equivalent levels of Formula II alone, FIG. 4f) was “no effect”, the “sensitisation of SKOV-3 cells to Cisplatin” value ([3]; in combination with 2.5 μM Cisplatin (p=0.003)) was “sensitised” and the “polysome peak, number of ribosomes associated with mRNA” value ([4]; after treatment, 20 minutes) was 3 ribosomes. For the same molecule, the amount of polyribosomes ([4]; cells treated for 20 minutes, 10-50% sucrose gradients) was “reduction in the amount of polyribosomes” and the “growth of MDA-MB-231 cells” value [5] was “slowed”.
